According to PMC11530130, “Peripherally restricted PICK1 inhibitor mPD5 ameliorates pain behaviors in murine inflammatory and neuropathic pain models” (JCI Insight, 2024):
“And” between values parts separate entries of the source, which are not always exact repeats. Equal values may be shown once. Read-outs that look alike come from different tables or passages of the source.

System: mice, spared nerve injury (SNI) model
Format: in vivo, mouse
Details: for von Frey paw withdrawal threshold, ipsilateral paw (Fig 7F): SNI mice, 10 umol/kg, individual animals
Procedure: solution (0.05 mg/kg) injected s.c. 30 min before surgery (10 μL/g). For surgery, mice were anaesthetised with ketamine (100 mg/kg, i.p.) and xylazine (10 mg/kg, i.p.) (volume 10 µL/g) with 100 μL of 1% xylocaine solution infiltrated at the site of the incision. The distal trifurcation of the sciatic nerve was identified, and the tibial and common peroneal branches were ligated with polypropylene nonabsorbable 6-0 sutures (Ethicon) and 1 mm was cut out, leaving the sural branch intact. The wound was closed with sutures, and the animals were allowed to recover and returned to their cages. Two subcutaneous injections of buprenorphine (0.05 mg/kg) were performed with an 8 to 12 hours delay decreasing pain due to the surgery […]
The remaining SNI pain experiments were performed in-house using the following procedure.
SNI surgery was performed on the left hindleg of C57BL/6J male and female mice (Janvier, France) under 2% isoflurane anaesthesia. Skin on the lateral surface was incised between hip and knee followed by lengthwise division of the biceps femoris muscle leading to exposure of the three branches of the sciatic nerve. Sural branch was left intact, while the peroneal and tibial branches were ligated with a single surgical knot and axotomized distally of the ligation.
Wounds were closed with surgical glue or medical clips and animals were monitored daily for signs of stress or discomfort, but in all cases recovered uneventfully. […]
The skin wound was closed with two medical clips (Michel Suture Clips, 7.5x1.75 mm, Angthos, 12040-01). Post-surgical analgesia included s.c. injection of 5 mg/kg carprofen (Carprosan vet, 50 mg/mL mixed 1:25 in sterile ddH2O, Dechra, Le Vet Beheer B.V., Netherlands, Batch: 050520) right after surgery and the […]
following day. […]
The test battery of the CIBP model was carried out 45 or 90 min after morphine and mPD5 administration respectively to accommodate the peak efficacy […]
Mechanically evoked pain (von Frey test).
Unless otherwise specified, von Frey occurred as described in the following. Animals were habituated to the experimental room for a minimum of 60 min before initiation of the experiment. Mechanical paw withdrawal threshold (PWT) was determined by von Frey measurements of both hind paws. Von Frey filaments ranging from 0.04 to 2 g (g = gram- […]
Filaments in ascending order were applied to the frontocentral plantar surface of the hind paws.
Mice were placed in PVC plastic boxes (11.5 cm x 14 cm) on a wire mesh and allowed minimum 20 min habituation prior of experiment initiation. Each von Frey hair was applied five times with adequate resting periods between each application and number of withdrawals recorded. The withdrawal threshold was determined as the von Frey filament eliciting at least three positive trials out of the five applications in two consecutive filaments. A positive trial was defined as sudden paw withdrawal, flinching and/or paw licking induced by the filament.
For the CIBP model, two habituation sessions were performed on separated days with mice placed in the von Frey equipment for 1-1.5 hours in the presence of the experimenter on day one and random von Frey pocking with the 0.6 g filament on day two. Von Frey monofilaments (North Coast Touch Test, North Coast Medical, Inc.) with target forces of 0.04g, 0.07g, 0.16g, […]
down method” (PWT=10Xf+kδ) starting with the 0.6 g filament. Positive response was defined as; withdrawal, shaking or grooming of paw following a 2-3 second stimulation. In case, of unclear response, stimulus was repeated after 10-15 seconds.
For the STZ model, the mechanical threshold response of the injected mice was measured with […]
injection of test compounds on day 14, mechanical threshold was measured at 1 hour, 2 hours, 4 hours and 6 hours and again on day 15. […]
Thermally evoked pain (Hargreaves test).
A baseline Hargreaves test was performed on day 0 before inflammatory pain was induced as described in section 2.13. In the Hargreaves test, the mouse was placed in a container on a glass […]

In the case of `CCCCCCCCCCCCCC(=O)N(CCOCCOCCC(=O)N[C@@H](Cc1c[nH]cn1)C(=O)N[C@@H](Cc1c[nH]c2ccccc12)C(=O)N[C@@H](CC(C)C)C(=O)N[C@@H](CCCCN)C(=O)N[C@H](C(=O)O)C(C)C)CCOCCOCCC(=O)N[C@@H](Cc1c[nH]cn1)C(=O)N[C@@H](Cc1c[nH]c2ccccc12)C(=O)N[C@@H](CC(C)C)C(=O)N[C@@H](CCCCN)C(=O)N[C@H](C(=O)O)C(C)C` [mPD5, myristoyl-NPEG4-(HWLKV)2], the “von Frey paw withdrawal threshold, ipsilateral paw (Fig 7F)” value (“von Frey paw withdrawal threshold” for short) (time point 8) is reported as 0.16 (5×) and 0.4, the “von Frey paw withdrawal threshold” value (time point 13) is reported as 0.16 (5×) and 0.07 and the “von Frey paw withdrawal threshold” value (time point BL (baseline)) is reported as 1 (2×) and 1.4 (4×). The “von Frey paw withdrawal threshold” value (time point D12 (before dosing)) was 0.16 (5×) and 0.07 and the “effect on mechanical hypersensitivity (PWT)” value (SNI, single s.c. administration, 8 hours after injection) was “no effect on mechanical hypersensitivity”.
